Entries after “also recorded” stand apart in the source; their conditions may differ. Where two headings read alike, the source gives them in different places.
Tests used:
[1] = molecular target: Dopamine D3 (Homo sapiens, UniProt P35462); assay: radio-ligand binding competition, D3; conditions: for IC50: displacement of high affinity ligand; for % Inhibition of Control Specific Binding: second round, individual EET isomers, 3 μM
[2] = molecular target: T1, Cannabinoid CB2 (Homo sapiens, UniProt P34972); assay: radio-ligand binding competition, CB2 ([3H]WIN 55212-2); conditions: for % Inhibition of Control Specific Binding: individual EET isomers, 3 μM
T1 construct: host or cells: CHO cells

[3] = molecular target: T2, Neurokinin NK2 (Homo sapiens, UniProt P21452); assay: radio-ligand binding competition, NK2; conditions: for IC50: displacement of high affinity ligand; for % Inhibition of Control Specific Binding: second round, individual EET isomers, 3 μM
T2 sequence (P21452 1-398): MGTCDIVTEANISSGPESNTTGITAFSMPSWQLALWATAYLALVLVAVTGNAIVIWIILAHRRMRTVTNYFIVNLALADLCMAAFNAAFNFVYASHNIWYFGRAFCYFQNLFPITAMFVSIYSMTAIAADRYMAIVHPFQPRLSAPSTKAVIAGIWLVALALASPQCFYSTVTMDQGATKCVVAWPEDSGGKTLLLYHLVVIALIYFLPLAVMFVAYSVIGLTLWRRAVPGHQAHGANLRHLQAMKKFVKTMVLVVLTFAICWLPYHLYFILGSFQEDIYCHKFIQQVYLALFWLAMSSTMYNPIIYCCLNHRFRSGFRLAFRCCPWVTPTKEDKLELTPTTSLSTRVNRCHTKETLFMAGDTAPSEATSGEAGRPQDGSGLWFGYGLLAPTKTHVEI

[4] = molecular target: T3, BZD (peripheral) (Rattus norvegicus, UniProt P16257); assay: radio-ligand binding competition, peripheral benzodiazepine receptor ([3H]PK 11195); conditions: for IC50: displacement of [3H]PK 11195; for inhibition of binding of [3H]PK 11195 (FIG. 1): increasing concentrations; for % Inhibition of Control Specific Binding: second round, individual EET isomers, 3 μM
T3 construct: containing 0.2 mg of cardiac membrane protein and the radioactive ligand; tissue CEREP (contract assay); host or cells: rat heart ventricular membranes

[5] = metabolomic analysis of oxylipids and prostaglandins in LPS-treated animals; format: in vivo
Source text: (In FIG. 3A, the bar presenting the results for the metabolite 6-keto-PGF1a for one group of animals exceeded the scale, as shown by a break in the bar and the statement of the result in ng/mL about the bar). FIG. 3A. […] FIG. 3C. […] All three graphs: bars with lines rising from left to right (e.g., in FIG. 3A, the “sum of DHETs”) present results for untreated (naïve) animals, bars with lines falling from left to right present results for animals treated with LPS, bars with cross-hatching present results for the animals treated with LPS and the sEH inhibitor AEPU, and bars with horizontal lines present the results for animals treated with LPS, AEPU, and the steroid synthesis inhibitor aminogluthetimide (“AGL”). The metabolites chosen for study show the effect on different pathways by which arachidonic acid is metabolized. ΣEpOMEs and ΣDiHOMEs are indicators of the P450 pathway, HETEs are an indicator of how much arachidonic acid is going through the 5-lipoxygenase pathway and 6-keto-PGF1a, and PGE2 are indicators of the arachidonic acid metabolized by the cyclooxygenase pathway. 6-keto-PGF1a and TXB2 are stable metabolites of PGI2 and thromboxane A2 which have been implicated in increased risk for stroke and heart attack. HODEs are lipoxygenase-derived fatty acid metabolites.
See, FIG. 3. This means that inhibition of sEH is not only effective against inflammatory pain but also effective in other types of pain that are not necessarily modulated by prostanoid levels. Indeed, non-inflammatory types of pain are known to be not well addressed by COX inhibitors. The levels of EETs and DHETs, however, correlated well with the nociceptive end result.

[6] = tested on: LPS-elicited thermal hyperalgesia; assay: LPS-elicited inflammatory pain model, hindpaw thermal withdrawal latency; format: in vivo, rat; conditions: for effect on response to LPS administration: agent + LPS, no sEHI (FIG. 2D); for effect on baseline TWL response: agent by itself, no LPS (FIG. 2C); for effect on the antihyperalgesic action of sEHI AEPU: topical, with LPS + AEPU (FIGS. 2A, 2B, 4); for effect on sEHI-elicited analgesia: with LPS + sEHI compound 950, two hours post LPS (FIG. 5)
Procedure: Inflammatory pain model: The nociception response was measured using the hind paw withdrawal latency test modified after Hargreaves at al., Pain, 32(1):77-88 (1988). Male Sprague-Dowley rats weighing 240-260 g, are individually housed at UC Davis Animal Resource Facility under standard conditions with free access to food and water, and maintained for at least 1 week before the experiments. On the day of the experiments, the animals' basal response is measured and then compounds are topically administered preceding an injection with 10 ug of endotoxin (1Lipopolysaccharide, “LPS”, Sigma-Aldrich, St. Louis, Mo.). Nociceptive response is then measured at 120 minutes post-LPS injection. Compounds are formulated by dissolving them in ethanol and mixing with cream in a ratio of 1:8. Eight animals per group are used. A dose response curve is obtained by administering increasing concentrations of EETs and measuring nociceptive response.
Behavioral nociceptive testing was conducted by assessing thermal hindpaw withdrawal latencies (“TWL”) using a commercial Hargreaves (Hargreaves et al., A new and sensitive method for measuring thermal nociception in cutaneous hyperalgesia. Pain 32:77-88 (1988)) apparatus (IITC Life Science Inc., Woodland Hills, Calif.). Male Sprague-Dawley rats weighing 240-250 g, were individually housed at the UC Davis Animal Resource Facility under standard conditions with free access to food and water, and maintained for at least 1 week before the experiments. On the day of the experiment, the rats were transferred to a quiet room, acclimated for 1 h, and their baseline responses measured. In pilot experiments, the intensity of the thermal stimulus was set to produce a baseline TWL of 7-8 s. Following baseline measurements, rats were first treated with 200 μl of vehicle or compound-formulated cream by topical application to one hind paw. Compounds (including sEHI, steroid synthesis inhibitors, steroid receptor antagonists, and cannabinoid receptor antagonists, as shown in the Figure legends) were formulated by dissolving them in ethanol and mixing with Vanicream® (Pharmaceutical Specialties, Inc., Rochester, Minn.) in a ratio of 1:9. The cream was thoroughly massaged across the entire hind paw surface over a 2 min period. After 1.5 hours rats were treated with 200 μl of sEHI formulated cream. Within 10 min of sEHI application, lipopolysaccharide (“LPS”, 10 μg in 50 μl 0.9% NaCl) was injected subcutaneously into the plantar surface of the treated paw. Immediately following LPS injection, animals were placed in acrylic chambers on a glass platform maintained at a temperature of 30±1° C. for TWL-measurement. During TWL measurement, a beam of radiant heat was focused onto the mid-portion of the plantar surface of the treated hind paw until the rat moved its stimulated hindpaw abruptly away from the heat stimulus. The duration of heat application necessary to elicit a withdrawal was designated as TWL. A maximum stimulus duration of 22 s was imposed to prevent tissue damage. Five TWL measurements were taken at 3-4 min interstimulus intervals for each of the time points following treatment. The three median TWLs were averaged for each animal at each time point.

[7] = tested on: CB2 over CB1; conditions: cited from earlier work
[8] = tested on: CAR induced local thermal hyperalgesia; assay: carrageenan-induced thermal hyperalgesia model; format: in vivo; conditions: topical, 20 hours post 2% carrageenan
Procedure: Using a second distinct inflammatory model, hyperalgesia was induced by intraplantar injection of 2% carrageenan (CAR) and sEH inhibitors were again delivered topically 20 hours post CAR injection.

[9] = displacement of high affinity ligand, read-out: IC50, CB2
[10] = AGL+AEPU vs AEPU-administered animals

T1 sequence (P34972 whole entry): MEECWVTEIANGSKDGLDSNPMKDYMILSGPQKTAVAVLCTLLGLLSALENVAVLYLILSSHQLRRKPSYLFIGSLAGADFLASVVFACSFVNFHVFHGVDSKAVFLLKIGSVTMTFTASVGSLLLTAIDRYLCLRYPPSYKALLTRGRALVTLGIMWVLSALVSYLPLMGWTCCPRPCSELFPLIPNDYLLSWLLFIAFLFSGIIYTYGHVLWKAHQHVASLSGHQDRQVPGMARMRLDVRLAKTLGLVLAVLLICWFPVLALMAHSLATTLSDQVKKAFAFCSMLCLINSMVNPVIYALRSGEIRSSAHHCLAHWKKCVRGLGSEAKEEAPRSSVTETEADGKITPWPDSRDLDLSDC
Chain of Dopamine D3 (P35462 whole entry): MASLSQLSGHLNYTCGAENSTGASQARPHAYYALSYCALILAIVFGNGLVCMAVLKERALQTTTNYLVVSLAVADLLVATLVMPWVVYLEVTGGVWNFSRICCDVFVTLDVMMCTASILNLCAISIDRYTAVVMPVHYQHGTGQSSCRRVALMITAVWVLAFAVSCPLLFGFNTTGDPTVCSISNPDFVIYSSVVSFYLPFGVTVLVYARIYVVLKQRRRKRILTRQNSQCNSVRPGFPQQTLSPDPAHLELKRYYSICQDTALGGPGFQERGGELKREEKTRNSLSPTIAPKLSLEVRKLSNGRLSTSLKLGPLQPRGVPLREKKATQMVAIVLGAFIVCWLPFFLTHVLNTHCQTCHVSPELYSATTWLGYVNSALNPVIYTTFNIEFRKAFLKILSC

Work on `CCCCC/C=C\C/C=C\C/C=C\CC1OC1CCCC(=O)OC` (stereo not shown) [5,6 EET-me] yielded an IC50 [1] greater than 100 µM, an IC50 [2, 9] of 20 µM and an IC50 [3] of 36 µM. The IC50 [4] was 12 µM.

In the case of `CCCCC/C=C\C/C=C\C/C=C\CC1OC1CCCC(=O)O` (stereo not shown) [5,6-EET], the “% Inhibition of Control Specific Binding” value [1] is reported as 18%, the “% Inhibition of Control Specific Binding” value ([2]; second round) is reported as 25% and the “% Inhibition of Control Specific Binding” value [3] is reported as 25%. For the same molecule, the “inhibition of binding of [3H]PK 11195 (FIG. 1)” value (“inhibition of binding … (FIG. 1)” for short) [4] was “completely inhibit” and the “% Inhibition of Control Specific Binding” value [4] was 27%.

With `CCCCC/C=C\C/C=C\CC1OC1C/C=C\CCCC(=O)OC` (stereo not shown) [8,9 EET-me] the IC50 [1] was greater than 100 µM, the IC50 [2, 9] was greater than 100 µM and the IC50 [3] was greater than 100 µM. For the same molecule, the IC50 [4] was greater than 100 µM.

For `CCCCC/C=C\C/C=C\CC1OC1C/C=C\CCCC(=O)O` (stereo not shown) [8,9-EET], the “% Inhibition of Control Specific Binding” value [1] was 9%, the “% Inhibition of Control Specific Binding” value ([2]; second round) was −2% and the “% Inhibition of Control Specific Binding” value [3] was 10%. The “% Inhibition of Control Specific Binding” value [4] was 11%.

Work on `CCCCC/C=C\CC1OC1C/C=C\C/C=C\CCCC(=O)OC` (stereo not shown) [11,12 EET-me] yielded an IC50 [1] greater than 100 µM, an IC50 [2, 9] greater than 100 µM and an IC50 [3] greater than 100 µM. For the same molecule, the IC50 [4] was 140 µM.

For `CCCCC/C=C\C[C@H]1O[C@H]1C/C=C\C/C=C\CCCC(=O)O` [11,12-EET], the “% Inhibition of Control Specific Binding” value [1] was 6%, the “% Inhibition of Control Specific Binding” value ([2]; second round) was 3% and the “% Inhibition of Control Specific Binding” value [3] was 1%. The “inhibition of binding … (FIG. 1)” value [4] was “completely inhibit” and the “% Inhibition of Control Specific Binding” value [4] was 28%.

`CCCCCC1OC1C/C=C\C/C=C\C/C=C\CCCC(=O)OC` (stereo not shown) [14,15 EET-me] showed an IC50 [1] greater than 100 µM, an IC50 [2, 9] greater than 100 µM and an IC50 [3] greater than 100 µM. The IC50 [4] was 12 µM.

For `CCCCCC1OC1C/C=C\C/C=C\C/C=C\CCCC(=O)O` (stereo not shown) [14,15-EET], the “% Inhibition of Control Specific Binding” value [1] was 10%, the “% Inhibition of Control Specific Binding” value ([2]; second round) was 5% and the “% Inhibition of Control Specific Binding” value [3] was 8%. For the same molecule, the “inhibition of binding … (FIG. 1)” value [4] was “completely inhibit” and the “% Inhibition of Control Specific Binding” value [4] was 45%.

In the case of `CCC1(c2ccc(N)cc2)CCC(=O)NC1=O` (stereo not shown) [AGL], the “levels of DHETs” value [5, 10] is reported as “increased”, the “levels of EETs” value [5, 10] is reported as “significantly reduced” and the PGE2 levels ([5]; AGL+LPS+AEPU vs AEPU+LPS or LPS only (FIG. 3)) is reported as “significantly lower”. The “effect on response to LPS administration” value [6] was “do not they modify”, the “effect on baseline TWL response” value [6] was “no impact” and the “effect on the antihyperalgesic action of sEHI AEPU” value (“effect … of sEHI AEPU” for short) [6] was “completely blocked; also recorded: clearly hyperalgesic”.

In the case of `Cc1c(C(=O)NN2CCCCC2)nn(-c2ccc(Cl)cc2Cl)c1-c1ccc(I)cc1` [AM251, N-(piperidin-1-yl)-5-(4-iodophenyl)-1-(2,4-dichlorophenyl)-4-methy 1-1H-pyrazole-3-carboxamide], the “effect on sEHI-elicited analgesia” value [6] is reported as “did not block”.

For `COc1ccc(C(=O)c2c(C)n(CCN3CCOCC3)c3cc(I)ccc23)cc1` [AM630, iodopravadoline], the “effect on sEHI-elicited analgesia” value [6] was “completely blocked”.

In the case of `CN1CCCCC1Cn1cc(C(=O)c2cc([N+](=O)[O-])ccc2I)c2ccccc21` (stereo not shown) [AM1241], the “selectivity for CB2 over CB1” value [7] is given as 340 fold.

In the case of `CCCCOC(=O)CCCCCCCCCCCNC(=O)NC12CC3CC(CC(C3)C1)C2` [AUDA-be, 12-(3-Adamantan-1-yl-ureido)dodecanoic acid butyl ester], the “effect on CAR induced thermal hyperalgesia” value [8] is reported as “blocked CAR induced local thermal hyperalgesia effectively; also recorded: effective therapeutically in reversing thermal hyperalgesia” and the “attenuation of LPS-elicited thermal hyperalgesia” value ([6]; topical administration) is reported as “prophylactic effect”.

For `CC(C)(C)NC(=O)[C@H]1CC[C@H]2[C@@H]3CC[C@H]4NC(=O)C=C[C@]4(C)[C@H]3CC[C@]12C` [Finasteride], the “effect on response to LPS administration” value [6] was “do not they modify”, the “effect on baseline TWL response” value [6] was “no impact” and the “effect … of sEHI AEPU” value [6] was “blocked”.

With `Cc1c(C(=O)c2cccc3ccccc23)c2cccc3c2n1C(CN1CCOCC1)CC3=O` (stereo not shown) [WIN55212-2, 4,5-dihydro-2-methyl-4(4-morpholinylmethyl)-1-(1-naphthalenylcarbonyl)-6H-pyrrolo[3,2,1ij]quinolin-6-one, reference compound] the IC50 ([2]; reference compound, first round, read-out: IC50 Ref (affinity of reference compound)) was 0.0076 µM and the IC50 ([2]; reference compound, second round, read-out: IC50 Ref) was 0.0027 µM.

With `CC#C[C@]1(O)CC[C@H]2[C@@H]3CCC4=CC(=O)CCC4=C3[C@@H](c3ccc(N(C)C)cc3)C[C@@]21C` [mifepristone] the “effect … of sEHI AEPU” value [6] was “did not have any impact”.

With `CC1(C)NC(=O)N(c2ccc([N+](=O)[O-])c(C(F)(F)F)c2)C1=O` [nilutamide] the “effect … of sEHI AEPU” value [6] was “did not have any impact”.

For `CC(=O)S[C@@H]1CC2=CC(=O)CC[C@]2(C)[C@H]2CC[C@@]3(C)[C@@H](CC[C@@]34CCC(=O)O4)[C@H]12` [spironoloactone], the “effect … of sEHI AEPU” value [6] was “did not have any impact”.

With `CC/C(=C(\c1ccccc1)c1ccc(OCCN(C)C)cc1)c1ccccc1` [tamoxifen] the “effect … of sEHI AEPU” value [6] was “did not have any impact”.

— patent US8263651B2, “Use of cis-epoxyeicosatrienoic acids and inhibitors of soluble epoxide hydrolase to treat conditions mediated by PBR, CB2, and NK2 receptors” (The Regents of the University of California, priority 2006, dated 2012)
